Here are results for 14 compounds from patent publication US8299021B2, “Macrocyclic inhibitors of hepatitis C virus replication” (InterMune, Inc., priority 2005, dated 2012).

Where two headings read alike, the source gives them in different places. A value given as a limit tells only on which side of the number the result lay.

The target in assay [1] is T1, NS3-NS4 protease (full-length NS3/NS4A-2) (Hepatitis C virus genotype 1a, UniProt P27958).
T1 construct: Recombinant E. coli or Baculovirus full-length NS3 was diluted to 3.33 μM with assay buffer; made in house; host or cells: E. coli or baculovirus (insect cells)
Kind of assay: NS3-NS4 protease assay / NS3 inhibition assay (RETS1 substrate, fluorescence kinetic read). Type of assay: biochemical. The settings on record: read-out: NS3-NS4 IC50. On the procedure:
NS3 complex formation with NS4A-2.
The appropriate amount of NS4A-2 to 8.3 mM in assay buffer was added to equal the volume of NS3 in step 2.1.1 (conversion factor—3.8 mg/272 μL assay buffer). The material was transferred to an eppendorf tube and place in water bath in 4° C. refrigerator.
After equilibration to 4° C., equal volumes of NS3 and NS4A-2 solutions were combined in an eppendorf tube, mix gently with a manual pipettor, and incubate mixture for 15 minutes in the 4° C. water bath.
After 15 minutes at 4° C., the NS3/NS4A-2 eppendorf tube was removed and place it in a room temperature water bath for 10 minutes. NS3/NS4A-2 was alliquoted at appropriate volumes and store at −80° C. (E. coli NS3 run at 2 nM in assay, aliquot at 25 μL. BV NS3 run at 3 nM in assay, aliquot at 30 μL).
Sample compounds were dissolved to 10 mM in DMSO then diluted to 2.5 mM (1:4) in DMSO.
The E. coli. […] Using the manual multichannel pipettor, careful not to introduce bubbles into the plate, add 50 μL assay buffer to wells A01-H01 of a black Costar 96-well polypropylene storage plate.
Using the manual multichannel pipettor, careful not to introduce bubbles into the plate, add 50 μL of diluted NS3/NS4A-2 from step 2.2.6 to wells A02-H12 of plate in step 2.2.7. Using the manual multichannel pipettor, careful not to introduce bubbles into the plate, transfer 25 μL of the wells in drug dilution plate in step 2.2.5 to corresponding wells in assay plate in step 2.2.8. Change tips on multichannel pipettor for each row of compounds transferred. Using the manual multichannel pipettor, careful not to introduce bubbles into the plate, mix the wells from the assay plate in step 2.2.9 by aspirating and dispensing 35 μL of the 75 μL in each well five times. Change tips on multichannel pipettor for each row of wells mixed. Cover plate with a polystyrene plate lid and pre-incubate the plate from step 2.2.10 containing NS3 protease and sample compounds 10 minutes at room temperature. While plate from step 2.2.11 is pre-incubating, dilute RETS1 substrate in a 15 mL polypropylene centrifuge tube.
After the plate in step is done pre-incubating, and using the manual multichannel, add 25 μL of substrate to all wells on the plate. Quickly mix the plate as in step 2.2.10, mixing 65 μL of the 100 μL in the wells.
Read the plate in kinetic mode on the Molecular Devices SpectraMax
IC50s are determined using a four parameter curve fit equation, and converted to Ki's using the following Km's:
where Ki=IC50/(1+[S]/Km))

Assay [2] concerns HCV sub-genomic replicon GS4.3 (HuH-7 hepatoma cells). Kind of assay: Quantitation by ELISA of neomycin phosphotransferase II (NPTII) in the HCV sub-genomic replicon, GS4.3. The class given is cell-based. From the text: Quantitation by ELISA of the Selectable Marker Protein, Neomycin Phosphotransferase II (NPTII) in the HCV Sub-Genomic Replicon, GS4.3
The HCV sub-genomic replicon (1377/NS3-3′, accession No. AJ242652), stably maintained in HuH-7 hepatoma cells, was created by Lohmann et al. Science 285: 110-113 (1999). The replicon-containing cell culture, designated GS4.3, was obtained from Dr. Christoph Seeger of the Institute for Cancer Research, Fox Chase Cancer Center, Philadelphia, Pa.
GS4.3 cells were maintained at 37° C., 5% CO2, in DMEM (Gibco 11965-092) supplemented with L-glutamine 200 mM (100×) (Gibco25030-081), non-essential amino acids (NEAA)(Biowhittaker 13-114E), heat-inactivated (HI) Fetal Bovine Serum(FBS)(Hyclone SH3007.03) and […] geneticin (G418)(Gibco 10131-035). Cells were sub-divided 1:3 or 4 every 2-3 days.
24 h prior to the assay, GS4.3 cells were collected, counted, and plated in 96-well plates (Costar 3585) at 7500 cells/well in 100 μl standard maintenance medium (above) and incubated in the conditions above. To initiate the assay, culture medium was removed, cells were washed once with PBS (Gibco 10010-023) and 90 μl Assay Medium (DMEM, L-glutamine, NEAA, 10% HI FBS, no G418) was added. Inhibitors were made as a 10× stock in Assay Medium, (3-fold dilutions from 10 μM to […] final concentration, final DMSO concentration 1%), 10 μl were added to duplicate wells, plates were rocked to mix, and incubated as above for 72 h.
An NPTII Elisa kit was obtained from AGDIA, Inc. (Compound direct ELISA test system for Neomycin Phosphotransferase II, PSP 73000/4800). Manufacturer's instructions were followed, with some modifications. 10×PEB-1 lysis buffer was made up to include 500 μM PMSF (Sigma P7626, 50 mM stock in isopropanol). After 72 h incubation, cells were washed once with PBS and 150 μlPEB-1 with PMSF was added per well. Plates were agitated vigorously for 15 minutes, room temperature, then frozen at −70° C. Plates were thawed, lysates were mixed thoroughly, and 100 μl were applied to an NPTII Elisa plate. A standard curve was made. Lysate from DMSO-treated control cells was pooled, serially diluted with PEB-1 with PMSF, and applied to duplicate wells of the ELISA plate, in a range of initial lysate amount of 150 ul-2.5 ul. In addition, 100 μl buffer alone was applied in duplicate as a blank. Plates were sealed and gently agitated at room temperature for 2 h. Following capture incubation, the plates were washed 5×300 μlwith PBS-T (0.5% Tween-20, PBS-T was supplied in the ELISA kit). For detection, a 1× dilution of enzyme conjugate diluent MRS-2 (5×) was made in PBS-T, into which 1:100 dilutions of enzyme conjugates A and B were added, as per instructions. Plates were resealed, and incubated with agitation, covered, room temperature, for 2 h. The washing was then repeated and 100 μlof room temperature TMB substrate was added. After approximately 30 minutes incubation (room temperature, agitation, covered), the reaction was stopped with 50 μl 3M sulfuric acid. Plates were read at 450 nm on a Molecular Devices Versamax plate reader.
Inhibitor effect was expressed as a percentage of DMSO-treated control signal, and inhibition curves were calculated using a 4-parameter equation: y=A+4B-A)/(1+((C/x)^13))), where C is half-maximal activity or EC50.

[3] abbreviates: Hepatitis C virus, Huh-7, GS4.3 cells, 72 h, read-out: Replicon EC50.
The mark [4] stands for this setting: GS4.3 cells, 72 h, read-out: Replicon EC50.
Setting [5] is: Hepatitis C virus, Huh-7, Table 26, read-out: EC50.

T1 sequence (P27958 1027-1657): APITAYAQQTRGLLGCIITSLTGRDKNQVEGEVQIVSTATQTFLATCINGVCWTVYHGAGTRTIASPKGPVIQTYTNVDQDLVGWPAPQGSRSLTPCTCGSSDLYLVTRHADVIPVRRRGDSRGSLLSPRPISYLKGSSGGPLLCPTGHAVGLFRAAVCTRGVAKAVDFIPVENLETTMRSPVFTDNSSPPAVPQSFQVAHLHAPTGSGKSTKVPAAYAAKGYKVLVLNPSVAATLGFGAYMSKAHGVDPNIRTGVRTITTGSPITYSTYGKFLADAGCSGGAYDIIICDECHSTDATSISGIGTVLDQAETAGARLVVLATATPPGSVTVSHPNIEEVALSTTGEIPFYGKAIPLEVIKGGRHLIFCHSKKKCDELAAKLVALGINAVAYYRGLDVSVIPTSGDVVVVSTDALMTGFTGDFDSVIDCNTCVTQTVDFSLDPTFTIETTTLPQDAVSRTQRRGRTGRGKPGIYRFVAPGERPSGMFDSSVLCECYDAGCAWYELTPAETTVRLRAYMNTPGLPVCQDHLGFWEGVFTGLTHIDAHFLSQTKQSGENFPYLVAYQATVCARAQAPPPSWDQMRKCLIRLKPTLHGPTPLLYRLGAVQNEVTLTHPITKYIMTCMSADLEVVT

As usually defined, the IC50 is the concentration that gives 50% inhibition. As a reminder, the EC50 is the midpoint of the concentration-response curve. `CC(C)(C)OC(=O)NC1CCCCC/C=C\[C@H]2C[C@@]2(C(=O)NS(=O)(=O)NCC(F)(F)F)NC(=O)C2CC(OC(=O)N3Cc4cccc(Cl)c4C3)CN2C1=O` (single isomer, unassigned) [Compound 226]: in assay [1], the concentration for half-maximal inhibition (IC50) is less than 100 nM. In assay [2] (setting [3]), the EC50 was less than 100 nM.
Consider `CC(C)(C)OC(=O)N[C@H]1CCCCC/C=C\[C@@H]2C[C@@]2(C(=O)NS(=O)(=O)C2(C)CC2)NC(=O)[C@@H]2C[C@@H](OC(=O)N3Cc4ccccc4C3)CN2C1=O` [Compound 100, (1S,4R,6S,14S,18R)-1,3-Dihydro-isoindole-2-carboxylic acid 14-tert-butoxycarbonylamino-4-(1-methylcyclopropane-1-sulfonyl)aminocarbonyl-2,15-dioxo-3,16-diaza-tricyclo[14.3.0.0^4,6]nonadec-7-en-18-yl Ester], for which the half-inhibitory concentration (IC50) in assay [1] was less than 100 nM. For the same compound, the half-maximal effective concentration (EC50) in assay [2] (setting [3]) was less than 100 nM.
Consider `C[C@@H](NC(=O)O[C@@H]1C[C@H]2C(=O)N[C@]3(C(=O)NS(=O)(=O)C4CC4)C[C@H]3/C=C\CCCCC[C@H](NC(=O)OC(C)(C)C)C(=O)N2C1)c1ccc(F)cn1` [Compound 150], for which, in assay [1], the concentration for half-maximal inhibition (IC50) was less than 100 nM. Besides, in assay [2] (setting [4]), the concentration for a half-maximal effect (EC50) is more than 10000 nM.
Consider `CC(C)(C)OC(=O)N[C@H]1CCCCC/C=C\[C@@H]2C[C@@]2(C(=O)NS(=O)(=O)C2CC2)NC(=O)C2C[C@@H](OC(=O)NCc3ccc(F)cn3)CN2C1=O` (stereo partly shown) [Compound 152], for which, in assay [1], the IC50 is less than 100 nM. Besides, the EC50 in assay [2] (setting [3]) was more than 10000 nM.
On the same counts, the results for `CC(C)(C)OC(=O)N[C@H]1CCCCC/C=C\[C@@H]2C[C@@]2(C(=O)O)NC(=O)C2C[C@@H](OC(=O)N3Cc4cccc(Cl)c4C3)CN2C1=O` (stereo partly shown) [Compound 177] are less than 100 nM and less than 10000 nM.
On the same counts, the results for `O=C1N[C@]2(C(=O)NS(=O)(=O)C3CC3)C[C@H]2/C=C\CCCCC[C@H](NC(=O)C2(C(F)(F)F)CC2)C(=O)N2C[C@H](OC(=O)N3Cc4cccc(Cl)c4C3)C[C@@H]12` [Compound 265] are less than 100 nM and less than 100 nM.
On the same counts, the results for `CC(C)(C)OC(=O)N[C@H]1CCCCC/C=C\[C@@H]2C[C@@]2(C(=O)NC(=O)c2ccccc2)NC(=O)[C@@H]2C[C@@H](OC(=O)N3Cc4ccccc4C3)CC2C1=O` (stereo partly shown) [Compound 705] are less than 100 nM and less than 100 nM.
In the case of `O=C1N[C@]2(C(=O)NS(=O)(=O)C3CC3)C[C@H]2/C=C\CCCCC[C@H](NCc2ccc(CO)o2)C(=O)N2C[C@H](OC(=O)N3Cc4cccc(F)c4C3)C[C@@H]12` [Compound 913], in assay [1], the IC50 is less than 100 nM. Also, the EC50 in assay [2] (setting [3]) was less than 1000 nM.
On the same counts, the results for `CC(C)(C)OC(=O)N[C@H]1CCC(F)(F)CCCC[C@@H]2C[C@@]2(C(=O)NS(=O)(=O)C2CC2)NC(=O)[C@@H]2C[C@@H](OC(=O)N3Cc4cccc(F)c4C3)CN2C1=O` [Compound 1010, (2R,6S,13aS,14aR,16aS,Z)-6-(tert-butoxycarbonylamino)-14a-(cyclopropylsulfonylcarbamoyl)-9,9-difluoro-5,16-dioxooctadecahydrocyclopropa (e) prrolo[1,2-a][1,4]diazacyclopentadecine 2-yl 4-fluoroisoindoline-2-carboxylate] are less than 100 nM and less than 100 nM.
As to `CC(C)(C)OC(=O)N[C@H]1CCCOC/C=C\[C@@H]2C[C@@]2(C(=O)NS(=O)(=O)C2CC2)NC(=O)[C@@H]2C[C@@H](OC(=O)N3Cc4cccc(F)c4C3)CN2C1=O` [Compound 1021, (2R,6S,13aS,14aR,16aS,Z)-6-(tert-butoxycarbonylamino)-14a-(cyclopropylsulfonylcarbamoyl)-5,16-dioxo-2,3,5,6,7,8,9,11,13a,14,14a,15,16,16a-tetradecahydro-1H-cyclopropa(e)pyrrolo[2,1-i][1,7,10]oxadiazacyclopentadecin-2-yl 4-fluoroisoindoline-2-carboxylate], the IC50 in assay [1] is less than 10000 nM. Further, in assay [2] (setting [4]), the EC50 is more than 10000 nM.
Turning to `CC(C)(C)OC(=O)N[C@H]1CCN(S(=O)(=O)c2ccccc2[N+](=O)[O-])CC/C=C\[C@@H]2C[C@@]2(C(=O)O)NC(=O)[C@@H]2C[C@@H](OC(=O)N3Cc4cccc(F)c4C3)CN2C1=O` [Compound 1029], in assay [1], the IC50 was less than 100 nM. Moreover, in assay [2] (setting [3]), the EC50 was less than 10000 nM.
Turning to `CC(C)(C)OC(=O)N[C@H]1CCCCC/C=C\[C@@H]2C[C@@]2(C(=O)NS(=O)(=O)C2CC2)NC(=O)[C@@H]2CCCN2C1=O` [Compound 2137, 1S,4R,6S,14S)tert-but 14-Cyclopropanesulfonylaminocarbonyl-2,15-dioxo-3,16-diaza-tricyclo[14.3.0.0^4,6]nonadec-7-ene-14-yl carbamate], the IC50 in assay [1] was more than 10000 nM. Moreover, in assay [2] (setting [5]), the EC50 was more than 10000 nM.
`O=C(CCC(F)(F)F)N[C@H]1CCCCC/C=C\[C@@H]2C[C@@]2(C(=O)NS(=O)(=O)C2CC2)NC(=O)[C@@H]2CCCN2C1=O` [Compound 2139]: the IC50 in assay [1] was more than 10000 nM. For the same compound, the concentration for a half-maximal effect (EC50) in assay [2] (setting [5]) was less than 1000 nM.
With “(2R,6S,13aS,14aR,16aS,Z)-6-(tert-butoxycarbonylamino)-9,9-difluoro-2-(4-fluoroisoindoline-2-carbonyloxy)-5,16-dioxo-1,2,3,5,6,7,8,9,10,11,13 a,14,14a,15,16,16a-hexadecahydrocyclopropa(e)prrolo[1,2-a][1,4]diazacyclopentadecine-14a-carboxylic acid [Compound 1006]”, the IC50 in assay [1] was less than 100 nM. Moreover, in assay [2] (setting [4]), the concentration giving a half-maximal response (EC50) is less than 10000 nM.
